For eleven compounds, TGI results are on record in PubChem BioAssay (NCI).

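Five concentrations, 48 hours, 96-well plates. At the TGI there is no net growth.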

What all share (test): NCI-60 cell line screen, 48 h
In assay [1] the test system is A498 renal.
The subject of assay [2] is A549 NSCLC.
The test system of assay [3] is ACHN renal.
Assay [4] relates to BT-549 breast.
The test system of assay [5] is CCRF-CEM leukemia.
The subject of assay [6] is EKVX NSCLC.
Assay [7] concerns HL-60(TB) leukemia.
Assay [8] concerns HOP-62 NSCLC.
The subject of assay [9] is M14 melanoma.
The test system of assay [10] is MALME-3M melanoma.
For assay [11], the system named is MOLT-4 leukemia.
The subject of assay [12] is NCI-H522 lung.
The test system of assay [13] is NCI/ADR-RES ovarian.
For assay [14], the system named is OVCAR-5 ovarian.
Assay [15] concerns RXF 393 renal.
In assay [16] the test system is SF-539 CNS.
In assay [17] the test system is SN12C renal.
Assay [18] has as its system T-47D breast.
Assay [19] concerns UACC-257 melanoma.
In assay [20] the test system is UO-31 renal.

Take `O=c1[nH]c2nccn2c(Cl)c1Br`: the TGI was above 100 µM in assay [1]; above 100 µM in [2]; 70.1 µM in assay [3]; 47.2 µM in assay [4]; 46.7 µM in assay [5]; 40.3 µM in assay [6]. For the same compound, the TGI is 33.5 µM in assay [7]; above 100 µM in assay [8]; 34.5 µM in assay [9]; 38.3 µM in assay [10]; 42.6 µM in [11]; 29.8 µM in [12]. For the same compound, the TGI in assay [13] is 73.2 µM; in assay [14], 49.1 µM; in [15], 20.8 µM; in [16] it was above 100 µM; in assay [17] it was 67.5 µM; in assay [18] it was 67.8 µM. Also, the TGI in assay [19] was 45.7 µM; in [20], above 100 µM.
In the case of `Cc1ccc(S(=O)(=O)Oc2coc(CO)cc2=O)cc1`, the TGI amounted to 30.2 µM in [1]; 28.1 µM in [2]; 38.2 µM in assay [3]; 39.2 µM in [4]; 10.7 µM in assay [5]; 30.1 µM in [6]. The TGI was 12.5 µM in assay [7]; 34 µM in [8]; 25.9 µM in [9]; 44.5 µM in [10]; above 88.5 µM in assay [11]; 3.71 µM in assay [12]. The TGI in [13] is above 69.5 µM; in [14], 31.8 µM; in [15], 30 µM; in assay [16], 87.8 µM; in [17], 25.3 µM; in assay [18], 30 µM. Further, the values for the TGI in assay [19] and in assay [20] were 43.4 µM and 27.3 µM, respectively.
`COC(=O)C1=C(C(=O)OC)C(C(=O)c2ccccc2)N2N=C(c3ccc(Cl)cc3)C=CC12` (stereo not given): the TGI in assay [1] is above 100 µM; in assay [2], above 100 µM; in [3], above 100 µM; in [4], 8.55 µM; in [5], above 100 µM; in [6], above 100 µM. In addition, the TGI is above 100 µM in [7]; above 100 µM in [8]; above 100 µM in assay [9]; 83.7 µM in assay [10]; above 100 µM in assay [11]; 43.5 µM in assay [12]. In addition, the TGI in [13], in assay [14], in assay [15], in assay [16], in assay [17] and in assay [18] was above 100 µM in each case. The TGI in assay [19] and in assay [20] was above 100 µM throughout.
In the case of `CCC/C(Cl)=N\OC(=O)Nc1ccc(Br)cc1`, the TGI turned out to be 32.2 µM in assay [1]; 45.2 µM in assay [2]; 20.3 µM in [3]; 62.6 µM in [4]; 4.3 µM in [5]; 29 µM in [6]. The TGI in [7] amounted to 7.22 µM; in assay [8], 42.6 µM; in [9], 25.2 µM; in [10], 10.8 µM; in assay [11], 6.07 µM; in assay [12] it was 3.53 µM. Besides, the TGI turned out to be 40.5 µM in assay [13]; 27.8 µM in assay [14]; 31 µM in [15]; 32.9 µM in assay [16]; 33.8 µM in [17]; 25.2 µM in assay [18]. For the same compound, the figures for the TGI in [19] and in assay [20] were 27 µM and 25.7 µM, respectively.
Consider `COc1ccc2c(c1)-c1c(c3ccccc3n1CCN1CCCCC1)CC2`, for which the TGI is above 100 µM in assay [1]; above 88.9 µM in assay [2]; above 100 µM in [3]; above 71 µM in [4]; 74 µM in assay [5]; 70.5 µM in assay [6]. Besides, the TGI in [7] is 20.4 µM; in [8] it was above 63.1 µM; in assay [9], above 55.8 µM; in [10] it was 39.3 µM; in [11] it was 47.4 µM; in assay [12] it was 28.6 µM. The TGI in [13] was 34.4 µM; in assay [14] it was above 57.2 µM; in assay [15], above 100 µM; in [16], 39.3 µM; in assay [17], above 83.9 µM; in assay [18], above 94.4 µM. Besides, the TGI in assay [19] was 54.9 µM; in assay [20], 30 µM.
As for `COc1ccc(-c2cc(=O)c3c(O)c(OC)c(O)cc3o2)cc1O`, the TGI was 65.8 µM in [1]; above 100 µM in assay [2]; above 100 µM in assay [3]; above 85.5 µM in [4]; above 31.8 µM in assay [5]; above 87.1 µM in assay [6]. In addition, the TGI was 14.2 µM in assay [7]; above 100 µM in assay [8]; above 75 µM in assay [9]; above 25.8 µM in [10]; 20.7 µM in assay [11]; 9.53 µM in assay [12]. Moreover, the TGI in assay [13] is above 21.2 µM; in assay [14], above 100 µM; in assay [15] it was above 64.8 µM; in assay [16], 21.9 µM; in assay [17] it was above 100 µM; in assay [18] it was above 100 µM. Moreover, the TGI in assay [19] and in assay [20] was above 100 µM throughout.
For the compound `CC1=CC[C@@]2(C)[C@@H]([C@@H]1C)[C@H]1CC[C@@H]3[C@@]4(C)CC[C@H](O)C(C)(C)[C@@H]4CC[C@@]3(C)[C@]1(C)C[C@@H]2O`, the TGI in assay [1] is above 39.8 µM; in assay [2] it was above 100 µM; in assay [3] it was 36 µM; in assay [4] it was above 64.3 µM; in assay [5], above 53.1 µM; in [6], 23.6 µM. Further, the TGI in [7] is above 100 µM; in assay [8] it was 38.6 µM; in assay [9] it was 32.3 µM; in assay [10], above 68.7 µM; in [11], above 70.4 µM; in [12] it was 8.15 µM. The TGI in assay [13] is 61.7 µM; in assay [14], above 78.2 µM; in assay [15], 28.5 µM; in [16] it was above 55.7 µM; in [17], above 100 µM; in assay [18], above 74.9 µM. Moreover, the TGI in [19] was 34.8 µM; in [20], above 100 µM.
In the case of `c1ccc2c(OCC3CO3)ccc(OCC3CO3)c2c1` (stereo not given), the TGI in assay [1] turned out to be 33.9 µM; in [2] it was 16.9 µM; in [3] it was 6.48 µM; in [4], 18.8 µM; in assay [5], 11.2 µM; in assay [6], 32.7 µM. The TGI in assay [7] was found to be 2.4 µM; in assay [8], 10.9 µM; in assay [9], 13.3 µM; in [10], 20.5 µM; in assay [11] it was 2.99 µM; in [12], 22.5 µM. Besides, the TGI in [13] came to 31.1 µM; in [14], 23.3 µM; in [15], 7.71 µM; in [16], 4.8 µM; in [17], 11.5 µM; in [18], 15.4 µM. The TGI in assay [19] turned out to be 20 µM; in [20], 3.15 µM.
`CCN(CC)CCN1CCN=c2c3cc(OC)ccc3n3cnc4ccc1c2c43`: the TGI in assay [1] is 1.82 µM; in assay [2], 2.78 µM; in [3] it was 3.61 µM; in assay [4], 3.26 µM; in assay [5] it was 1.71 µM; in [6] it was 3.21 µM. Besides, the TGI stood at 1.2 µM in [7]; 3.46 µM in assay [8]; 2.85 µM in assay [9]; 2.74 µM in assay [10]; 0.999 µM in assay [11]; 3.86 µM in assay [12]. For the same compound, the TGI was found to be 2.39 µM in [13]; 5.77 µM in assay [14]; 1.52 µM in [15]; 0.969 µM in [16]; 3.38 µM in assay [17]; 23.3 µM in assay [18]. For the same compound, the TGI in [19] amounted to 3.74 µM; in assay [20], 4.42 µM.
In the case of `CCCOc1ccc(/C=C/C2=[N+](CCO)CCO2)cc1`, the TGI in assay [1], in assay [2], in [3], in assay [4], in assay [5] and in [6] was above 100 µM in each case. The TGI in [7], in [8], in assay [9], in [10], in [11] and in [12] was above 100 µM each time. For the same compound, the TGI in assay [13], in assay [14], in assay [15], in assay [16], in [17] and in [18] was above 100 µM throughout. Further, the TGI in [19] and in assay [20] was above 100 µM in each case.
As to `NC(=O)CC1(O)C=CC(=O)C=C1`, the TGI in assay [1], in assay [2], in [3], in [4], in assay [5] and in [6] was above 100 µM each time. Also, the TGI in assay [7], in assay [8], in assay [9], in assay [10], in [11] and in assay [12] was above 100 µM throughout. Besides, the TGI in [13], in assay [14], in [15], in [16], in [17] and in [18] was above 100 µM throughout. Moreover, the TGI in [19] and in assay [20] was above 100 µM throughout.
